The target of one series is T1, TRKA Protein (wild type) (Homo sapiens, UniProt P04629).
T1 construct: purchased abcam ab60887
Briefly: Detection of TRK inhibitory activity (ADP-Glo kinase assay), TRKA wild type. To be noted: 35 min at room temperature. The class given is biochemical. On the procedure: (§1) An enzyme reaction buffer was prepared containing 25 mM MOPS, 5 mM MgCl2, 500 μM DTT and 0.005% Triton, and then adjusted to pH 7.5.
(§2) The test compound was diluted with DMSO to 200 times of the desired final concentration, and mixed evenly, then 3 μL of the solution was pipetted to 117 μL of enzyme reaction buffer and mixed thoroughly. Then, 3 μL of the enzyme reaction buffer containing the test compound was pipetted to a 96-well PCR plate. The positive and negative control wells were filled with 3 μL of enzyme reaction buffer containing 2.5% DMSO, respectively. TRK protein was diluted to 0.4 ng/μL with the enzyme reaction buffer, and 6 μL of diluted TRK protein was added to each well except for the well for the blank control group, in which 6 μL of the enzyme reaction buffer was added. The reaction plate was centrifuged at 1000 rpm/min for 1 minute, and the compound and TRK were pre-incubated at room temperature for 10 minutes. A mixed solution with ATP at a concentration of 160 μM and substrate at a concentration of 1 μM was prepared with the enzyme reaction buffer, and 6 μL of the mixed solution was added to each reaction well. The reaction plate was centrifuged at 1000 rpm/min for 1 minute, and incubated at room temperature for 35 minutes. After the enzyme reaction was completed, 15 μL of ADP-Glo was added to each reaction well. The reaction plate was centrifuged at 1000 rpm/min for 1 minute, and incubated at room temperature for 40 minutes. Then 15 μL of the reaction solution from each well was transferred to a 384-well plate, and then 15 μL of detection substrate was added to each corresponding well of the 384-well plate. The 384-well plate was centrifuged at 1000 rpm/min for 1 minute, and incubated at room temperature for 40 minutes. After the reaction, a microplate reader was used to read the cold luminescence signal value in the 384-well plate.
(§3) The residual viability percentage of each concentration was calculated with the following formula: Residual viability (%)=100*(Lumincompond−Luminblank control)/(Luminpostive control−Luminblank control)
(§4) Then, GraphPad 5.0 was fitted to the effect curve to calculate the IC50 value.

Series [1] relates to Ba/F3 ETV6-NTRK3-G623R cell line. The series can be described thus: Cell experiment, CellTiter-Glo viability, Ba/F3 ETV6-NTRK3-G623R. To be noted: Mus musculus, BaF3, 72 hours, CTG. The class given is cell-based. On the procedure:
(§5) Cell culture and seeding: (1) cells in logarithmic growth phase were harvested and counted using a […]. The cell viability was detected by trypan blue exclusion method to ensure that the cell viability was above 90%. (2) The cell concentration was adjusted; and 90 μl of cell suspension was added to the 96-well plate.
(§6) 10 μl of drug solution was added to each well in a 96-well plate inoculated with cells, triplicate per concentration.
(§7) End-point for reading: (1) The CTG reagent was thawed and the cell plate was equilibrated to room temperature for 30 minutes. (2) Equal volume of CTG solution was added to each well. (3) The plated was shaken on an orbital shaker for 5 minutes to lyse the cells. (4) The cell plate was placed at room temperature for 20 minutes to stabilize the cold light signal. (5) The cold light value was read.
(§8) GraphPad Prism 7.0 software was used to analyze the data, and nonlinear S-curve regression was fitted the data to get the dose-effect curve, and the IC50 value was calculated therefrom. Cell survival (%)=(Lumtest drug−Lumculture control)/(Lumcell control−Lumculture control)×100%.

Another series deals with TRKA (G667C) (Homo sapiens, UniProt P04629, G667C). The series can be described thus: Detection of TRK inhibitory activity (ADP-Glo kinase assay), TRKA (G667C). The class given is biochemical. On the procedure:
as §1, §2, §3, §4

Series [2] has as its system Ba/F3 LMNA-NTRK1-F589L cell line. The series can be described thus: Cell experiment, CellTiter-Glo viability, Ba/F3 LMNA-NTRK1-F589L. The class given is cell-based. To be noted: Mus musculus, BaF3, 72 hours, CTG. The protocol: as §5, §6, §7, §8
The subject of series [3] is Ba/F3 LMNA-NTRK1-G595R cell line. The series can be described thus: Cell experiment, CellTiter-Glo viability, Ba/F3 LMNA-NTRK1-G595R. The class given is cell-based. To be noted: Mus musculus, BaF3, 72 hours, CTG. The protocol: as §5, §6, §7, §8

Structures are written as SMILES. Read-outs that look alike come from different tables or passages of the source.

T1 sequence (P04629 33-796): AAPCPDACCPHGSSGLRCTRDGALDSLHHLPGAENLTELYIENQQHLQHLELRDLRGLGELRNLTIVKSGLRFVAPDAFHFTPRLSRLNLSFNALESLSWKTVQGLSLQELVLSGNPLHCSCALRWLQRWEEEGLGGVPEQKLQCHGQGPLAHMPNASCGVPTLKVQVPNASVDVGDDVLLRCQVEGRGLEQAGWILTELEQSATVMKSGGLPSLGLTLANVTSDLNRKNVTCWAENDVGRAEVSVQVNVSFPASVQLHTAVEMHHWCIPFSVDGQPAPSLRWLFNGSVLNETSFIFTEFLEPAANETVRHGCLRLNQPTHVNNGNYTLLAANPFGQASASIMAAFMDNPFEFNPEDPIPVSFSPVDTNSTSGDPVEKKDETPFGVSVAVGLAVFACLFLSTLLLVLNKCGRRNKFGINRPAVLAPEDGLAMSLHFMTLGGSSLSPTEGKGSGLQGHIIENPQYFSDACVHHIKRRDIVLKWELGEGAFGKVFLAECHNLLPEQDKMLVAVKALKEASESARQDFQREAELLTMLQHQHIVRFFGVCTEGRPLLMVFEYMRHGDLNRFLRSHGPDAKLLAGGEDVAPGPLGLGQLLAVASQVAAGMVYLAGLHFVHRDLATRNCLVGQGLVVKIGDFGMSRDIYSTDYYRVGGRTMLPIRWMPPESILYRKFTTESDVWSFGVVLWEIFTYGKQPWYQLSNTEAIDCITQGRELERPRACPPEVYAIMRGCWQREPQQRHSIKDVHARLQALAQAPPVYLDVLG
TRKA (G667C), sequence (P04629 33-796 G667C): as the sequence (P04629 33-796) above, with G635C counted along it

Under “from C[C@@H](CCNc1c(C(=O)O)cnc2ccc(Cl)nc12)Oc1ccc(F)cc1[C@H]1CCCN1, cn_pd bond, Pd2(dba)3/SPhos/Cs2CO3, toluene, 62.5 mM, 100.0 °C, 16.0 h”, `C[C@H]1CCNc2c(C(=O)O)cnc3ccc(nc23)N2CCC[C@@H]2c2cc(F)ccc2O1` displayed a ring closure, yield of all isomers of 52%.

As to `COc1ccc(CN2CC[C@H](C)Oc3ccc(F)cc3[C@H]3CCCN3c3ccc4ncnc2c4n3)c(OC)c1`, the ring closure, yield of all isomers (from COc1ccc(CN(CC[C@@H](C)O)c2ncnc3ccc(N4CCC[C@@H]4c4cc(F)ccc4O)nc23)c(OC)c1, ether bond, DIAD/triphenylphosphine (printed as triphenylphosphine oxide), tetrahydrofuran, 72.0 mM, 25.0 °C, 3.0 h) was found to be 72.3%.

Turning to `C[C@H]1CCNc2ncnc3ccc(nc23)N2CCC[C@@H]2c2cc(F)ccc2O1` [Example 7, (6R,14S)-9-fluoro-14-methyl-13-oxa-2,17,19,21,25-pentaazapentacyclo[16.6.2.0^2,^6.0^7,^12.0^22,^26]hexacosane-1(25),7,9,11,18(26),19,21,23-octane], the values for the IC50 (on TRKA Protein (wild type); in series [1]; against TRKA (G667C)) were < 50 nM, 3.6 nM and < 50 nM, respectively. The molecule also came in with an IC90 in series [1] of 8.7 nM.

With `C[C@@H]1CCOc2ccc(F)cc2[C@H]2CCCN2c2ccc3ncc(F)c(c3n2)N1` [Example 19, (6R,16R)-9,19-difluoro-16-methyl-13-oxa-2,17,21,25-tetraazapentacyclo[16.6.2.0^2,^6.0^7,^12.0^22,^26]hexacosane-1(25),7,9,11,18(26),19,21,23-octane], the half-maximal inhibitory concentration (IC50) against TRKA Protein (wild type) and at TRKA (G667C) was < 50 nM throughout. For the setting “from C[C@H](CCOc1ccc(F)cc1[C@H]1CCCN1)Nc1c(F)cnc2ccc(Cl)nc12, cn_pd bond, SPhos Pd G3, toluene/tert-butanol, 35.0 mM, 100.0 °C, 16.0 h”, this molecule showed a ring closure, yield of all isomers of 8.1%.

For the molecule `C[C@H]1Nc2ccc3ncnc(c3n2)NCCCOc2ccc(F)cc21` [Example 17, 6-fluoro-3-methyl-10-oxa-2,14,16,18,22-pentaazatetracyclo [13.6.2.0^4,^9.0^19,^23] tricosane-1 (22),4,6,8,15(23),16,18,20-octane], the IC50 against TRKA Protein (wild type) and at TRKA (G667C) was < 50 nM in each case. In addition, the ring closure, yield of all isomers (from C[C@@H](N)c1cc(F)ccc1OCCCNc1ncnc2ccc(Cl)nc12, cn_pd bond, Pd2(dba)3/SPhos/Cs2CO3, toluene, 12.2 mM, 110.0 °C, 16.0 h) was found to be 5.4%.

Turning to `C[C@@H]1CCOc2ccc(F)cc2[C@@H](C)Nc2ccc3ncc(F)c(c3n2)N1` [Example 18, (R,R)-6,16-difluoro-3,13-dimethyl-10-oxa-2,14,18,22-tetraazatetracyclo[13.6.2.0^4,^9.0^19,^23]tricosane-1(22),4,6,8,15(23),16,18,20-octane], the IC50 against TRKA Protein (wild type) and at TRKA (G667C) was < 50 nM each time. Besides, the ring closure, yield of all isomers (from C[C@H](CCOc1ccc(F)cc1[C@@H](C)N)Nc1c(F)cnc2ccc(Cl)nc12, cn_pd bond, SPhos Pd G3/SPhos/Cs2CO3, toluene, 90.0 mM, 100.0 °C, 16.0 h) amounted to 8.2%.

In the case of `C[C@@H]1CCOc2ccc(F)cc2[C@H]2CCCN2c2ccc3ncnc(c3n2)N1` [Example 6, (6R,16R)-9-fluoro-16-methyl-13-oxa-2,17,19,21,25-pentaazapentacyclo[16.6.2.0^2,^6.0^7,^12.0,^26]hexacosane-1(25),7,9,11,18(26),19,21,23-octane], the concentration for half-maximal inhibition (IC50) on TRKA Protein (wild type) is < 50 nM; in series [1], 42.1 nM; at TRKA (G667C), < 50 nM. In series [1], this molecule had an IC90 of 94.2 nM.

Consider `CCOC(=O)c1cnc2ccc3nc2c1N[C@H](C)CCOc1ccc(F)cc1[C@H]1CCCN31`, for which the ring closure, yield of all isomers (from CCOC(=O)c1cnc2ccc(Cl)nc2c1N[C@H](C)CCOc1ccc(F)cc1[C@H]1CCCN1, cn_pd bond, Pd2(dba)3/SPhos/Cs2CO3, toluene, 64.4 mM, 100.0 °C, 16.0 h) was 54%.

Consider `Fc1cnc2c(c1)[C@H]1CCCN1c1ccc3ncnc(c3n1)NCCCC2` [Example 15, (6R)-9-fluoro-2,11,17,19,21,25-hexaazapentacyclo [16.6.2.0^2,^6.0^7,^12.0^22,^26]hexacosane-1(25),7,9,11,18(26),19,21,23-octane], for which the IC50 against TRKA Protein (wild type) and against TRKA (G667C) was < 50 nM each time.

Regarding `CN1CCN(c2ccc(C(=O)Nc3n[nH]c4ccc(Cc5cc(F)cc(F)c5)cc34)c(NC3CCOCC3)c2)CC1` [RXDX-101, reference compound], the IC50 in series [1] was 466 nM; in series [2], < 1 nM; in series [3], 1730 nM. Further, the 90% effect concentration (IC90) in series [1] was 843 nM; in series [2], 1.4 nM; in series [3], 6.12 µM.

`CN1Cc2cc(F)ccc2OCCCNc2ncnc3ccc1nc23` [Example 3, 6-fluoro-2-methyl-10-oxa-2,14,16,18,22-pentaazatetracyclo [13.6.2.0^4,^9.0^19,^23] tricosane-1(22),4,6,8,15(23),16,18,20-octane]: the IC50 against TRKA Protein (wild type) and at TRKA (G667C) was < 50 nM in each case.

These data come from patent US11584759B2, “Macrocyclic kinase inhibitor” (HITGEN INC., priority 2018, dated 2023).
